From patent US20230226074A1, “METHODS OF USE FOR PYRIMIDINES AS FERROPORTIN INHIBITORS” (Global Blood Therapeutics, Inc., priority 2020, published 2023)

biological target: T1, human ferroportin (Homo sapiens, UniProt Q9NP59); assay: In-vitro ferroportin internalization assay (luciferase reporter); type: cell-based; conditions: average pEC50; stably-transfected CHO cell line expressing human ferroportin tagged to a luciferase reporter; 6 h incubation with test compound
T1 construct: luciferase reporter (probably NanoLuc, inferred from the Nano-Glo Luciferase Assay System read-out); expressed in transfected cells; host or cells: CHO cells, stably transfected, expression induced with doxycycline
T1 sequence (Q9NP59 1-571): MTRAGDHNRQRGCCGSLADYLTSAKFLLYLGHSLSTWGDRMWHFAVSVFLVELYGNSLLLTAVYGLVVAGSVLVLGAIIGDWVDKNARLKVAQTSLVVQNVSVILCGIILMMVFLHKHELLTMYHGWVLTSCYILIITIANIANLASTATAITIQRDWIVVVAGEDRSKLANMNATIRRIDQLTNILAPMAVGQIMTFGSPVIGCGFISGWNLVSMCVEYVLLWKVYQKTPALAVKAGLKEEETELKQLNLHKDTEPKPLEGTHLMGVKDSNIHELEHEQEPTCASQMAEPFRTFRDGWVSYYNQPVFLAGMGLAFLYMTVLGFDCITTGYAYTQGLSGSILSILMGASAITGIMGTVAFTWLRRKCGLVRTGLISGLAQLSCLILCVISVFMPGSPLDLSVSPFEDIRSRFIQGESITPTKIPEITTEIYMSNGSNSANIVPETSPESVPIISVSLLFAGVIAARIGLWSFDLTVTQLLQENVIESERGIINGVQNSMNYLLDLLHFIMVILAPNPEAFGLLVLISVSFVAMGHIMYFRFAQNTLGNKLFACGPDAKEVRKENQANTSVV
Procedure: The protocol for this assay is generally as described in WO2018/128828, incorporated herein by reference in its entirety. Functional internalization of ferroportin protein was measured using a stably-transfected CHO cell line expressing the human ferroportin tagged to a luciferase reporter. Cells were plated for 24 h in the presence of ferric ammonium citrate (FAC). Ferroportin protein expression was induced with doxycycline for 24 h. The next day, the compounds were added. Test compounds were dissolved in DMSO. Cells were incubated with the test compounds for 6 h, and subsequently luciferase activity was measured using the Nano-Glo Luciferase Assay System and Glomax (Promega, Madison, Wis.). The average pEC50 was determined for the test compounds.

SMILES	pEC50
COc1ccnc(-c2nc3c(c(N(C)CC(=O)N[C@H]4CCC[C@H]4O)n2)CCC3)c1 (single isomer, unassigned) [Compound 171]	7.2
COc1ccnc(-c2nc3c(c(N(C)CC(=O)N[C@H]4CCC[C@@H]4O)n2)CCC3)c1 (single isomer, unassigned) [Compound 173]	6.8
COc1ccc(NC(=O)C(C(C)C)N(C)c2nc(-c3ccccn3)nc3c2CCC3)cn1 (single isomer, unassigned) [Compound 316]	7.2
CC(C)C(C(=O)Nc1cnn(C)c1)N(C)c1nc(-c2ccccn2)nc2c1CCC2 (single isomer, unassigned) [Compound 317]	7.1
CC(C)[C@@H](C(=O)Nc1cnn(C)c1)N(C)c1nc(-c2ccccn2)nc2c1CCC2 (single isomer, unassigned) [Compound 318]	7.2
CN(CC(=O)Nc1cccc(F)c1)c1nc(-c2ccccn2)nc2c1CCC2 [Compound 74, N-(3-fluorophenyl)-2-{methyl[2-(pyridin-2-yl)-5H,6H,7H-cyclopenta[d]pyrimidin-4-yl]amino}acetamide]	7.5
COc1ccnc(-c2nc3c(c(N(C)CC(=O)NC(C)(C)CO)n2)CCC3)c1 [Compound 136, N-(1-hydroxy-2-methylpropan-2-yl)-2-{[2-(4-methoxypyridin-2-yl)-5H,6H,7H-cyclopenta[d]pyrimidin-4-yl](methyl)amino}acetamide]	7.6
CN(CC(=O)NC(C)(C)C)c1nc(-c2cccnn2)nc2c1CCC2 [Compound 175, N-tert-butyl-2-{methyl[2-(pyridazin-3-yl)-5H,6H,7H-cyclopenta[d]pyrimidin-4-yl]amino}acetamide]	<5.0
COCCN(C)c1nc(-c2ccccn2)nc2sc(C)c(C)c12 [Compound 179, N-(2-methoxyethyl)-N,5,6-trimethyl-2-(pyridin-2-yl)thieno[2,3-d]pyrimidin-4-amine]	6.9
Cc1sc2nc(-c3ccccn3)nc(N(C)CCN3CCCC3=O)c2c1C [Compound 180, 1-(2-{[5,6-dimethyl-2-(pyridin-2-yl)thieno[2,3-d]pyrimidin-4-yl](methyl)amino}ethyl)pyrrolidin-2-one]	6.1
COc1ccc(NC(=O)CN(C)c2nc(-c3ccccn3)nc3sc(C)c(C)c23)cc1 [Compound 181, 2-{[5,6-dimethyl-2-(pyridin-2-yl)thieno[2,3-d]pyrimidin-4-yl](methyl)amino}-N-(4-methoxyphenyl)acetamide]	7.2
Cc1sc2nc(-c3ccccn3)nc(N(C)CC(=O)Nc3ccccc3)c2c1C [Compound 182, 2-{[5,6-dimethyl-2-(pyridin-2-yl)thieno[2,3-d]pyrimidin-4-yl](methyl)amino}-N-phenylacetamide]	7
Cc1sc2nc(-c3ccccn3)nc(N(C)CC(=O)Nc3cccnc3)c2c1C [Compound 183, 2-{[5,6-dimethyl-2-(pyridin-2-yl)thieno[2,3-d]pyrimidin-4-yl](methyl)amino}-N-(pyridin-3-yl)acetamide]	7.1
Cc1sc2nc(-c3ccccn3)nc(N(C)CC(=O)N(C)C)c2c1C [Compound 184, 2-{[5,6-dimethyl-2-(pyridin-2-yl)thieno[2,3-d]pyrimidin-4-yl](methyl)amino}-N,N-dimethylacetamide]	6.9
CN(c1nc(-c2ccccn2)nc2c1CCC2)C1CCc2ccccc21 (stereo not drawn) [Compound 185, N-(2,3-dihydro-1H-inden-1-yl)-N-methyl-2-(pyridin-2-yl)-5H,6H,7H-cyclopenta[d]pyrimidin-4-amine]	6.3
O=C(O)CCCCCNc1nc(-c2ccccn2)nc2c1CCC2 [Compound 186, 6-{[2-(pyridin-2-yl)-5H,6H,7H-cyclopenta[d]pyrimidin-4-yl]amino}hexanoic acid]	5.3
c1ccc(-c2nc3c(c(N4CCCOC5CCCC54)n2)CCC3)nc1 (stereo not drawn) [Compound 187, 2-(4-{octahydro-2H-cyclopenta[b][1,4]oxazepin-5-yl]-5H,6H,7H-cyclopenta[d]pyrimidin-2-yl)pyridine]	6.8
CC1CCN(c2nc(-c3ccccn3)nc3c2CCC3)C1 (stereo not drawn) [Compound 188, 2-[4-(3-methylpyrrolidin-1-yl)-5H,6H,7H-cyclopenta[d]pyrimidin-2-yl]pyridine]	5.7

SMILES	pEC50
OCCC1CCCCCN1c1nc(-c2ccccn2)nc2c1CCC2 (stereo not drawn) [Compound 189, 2-{1-[2-(pyridin-2-yl)-5H,6H,7H-cyclopenta[d]pyrimidin-4-yl]azepan-2-yl}ethan-1-ol]	6.7
O=C(NC1CCN(c2nc(-c3ccccn3)nc3scc(-c4ccccc4)c23)CC1)c1cccnc1 [Compound 191, N-{1-[5-phenyl-2-(pyridin-2-yl)thieno[2,3-d]pyrimidin-4-yl]piperidin-4-yl}pyridine-3-carboxamide]	6.2
Cc1sc2nc(-c3ccccn3)nc(NCCCO)c2c1-c1ccccc1 [Compound 192, 3-{[6-methyl-5-phenyl-2-(pyridin-2-yl)thieno[2,3-d]pyrimidin-4-yl]amino}propan-1-ol]	5.9
CCN(CCO)c1nc(-c2ccccn2)nc2scc(-c3ccccc3)c12 [Compound 193, 2-{ethyl[5-phenyl-2-(pyridin-2-yl)thieno[2,3-d]pyrimidin-4-yl]amino}ethan-1-ol]	6.4
CCc1cc(N2Cc3ccccc3N(C)CC2C)nc(-c2ccccn2)n1 (stereo not drawn) [Compound 194, 4-[6-ethyl-2-(pyridin-2-yl)pyrimidin-4-yl]-1,3-dimethyl-2,3,4,5-tetrahydro-1H-1,4-benzodiazepine]	6.3
Cc1cccc(C)c1NC(=O)CN(C)c1nc(-c2ccccn2)nc(C)c1C [Compound 195, 2-{[5,6-dimethyl-2-(pyridin-2-yl)pyrimidin-4-yl](methyl)amino}-N-(2,6-dimethylphenyl)acetamide]	6.5
Cc1nc(-c2ccccn2)nc(N(C)CCN(C)c2ccccc2)c1C [Compound 196, N,5,6-trimethyl-N-{2-[methyl(phenyl)amino]ethyl}-2-(pyridin-2-yl)pyrimidin-4-amine]	6.7
Cc1sc2nc(-c3ccccn3)nc(N(C)CC(C)O)c2c1-c1ccccc1 (stereo not drawn) [Compound 197, 1-{methyl[6-methyl-5-phenyl-2-(pyridin-2-yl)thieno[2,3-d]pyrimidin-4-yl]amino}propan-2-ol]	6.3
CCC1COCCN1c1nc(-c2ccccn2)nc2scc(-c3ccccc3)c12 (stereo not drawn) [Compound 198, 3-ethyl-4-[5-phenyl-2-(pyridin-2-yl)thieno[2,3-d]pyrimidin-4-yl]morpholine]	6
c1ccc(-c2csc3nc(-c4ccccn4)nc(N4CCN(CCN5CCCC5)CC4)c23)cc1 [Compound 199, 1-[5-phenyl-2-(pyridin-2-yl)thieno[2,3-d]pyrimidin-4-yl]-4-[2-(pyrrolidin-1-yl)ethyl]piperazine]	5.8
CN1CCN(c2nc(-c3ccccn3)nc3sc(-c4ccccc4)cc23)CC1 [Compound 200, 1-methyl-4-[6-phenyl-2-(pyridin-2-yl)thieno[2,3-d]pyrimidin-4-yl]piperazine]	5.3
CC(C#N)CN(C)c1nc(-c2ccccn2)nc2sc(-c3ccccc3)cc12 (stereo not drawn) [Compound 201, 2-methyl-3-{methyl[6-phenyl-2-(pyridin-2-yl)thieno[2,3-d]pyrimidin-4-yl]amino}propanenitrile]	6
CCN(CC)CCCNc1nc(-c2ccccn2)nc2scc(-c3ccccc3)c12 [Compound 202, N-[3-(diethylamino)propyl]-5-phenyl-2-(pyridin-2-yl)thieno[2,3-d]pyrimidin-4-amine]	5.7
c1ccc(-c2csc3nc(-c4ccccn4)nc(NC4CC4)c23)cc1 [Compound 203, N-cyclopropyl-5-phenyl-2-(pyridin-2-yl)thieno[2,3-d]pyrimidin-4-amine]	5.7
c1ccc(-c2csc3nc(-c4ccccn4)nc(N4CCC4)c23)cc1 [Compound 204, 2-[4-(azetidin-1-yl)-5-phenylthieno[2,3-d]pyrimidin-2-yl]pyridine]	5.6
c1ccc(-c2csc3nc(-c4ccccn4)nc(N4CCCC4)c23)cc1 [Compound 205, 2-[5-phenyl-4-(pyrrolidin-1-yl)thieno[2,3-d]pyrimidin-2-yl]pyridine]	5.9
c1ccc(-c2csc3nc(-c4ccccn4)nc(N4CCN(c5ccccc5)CC4)c23)cc1 [Compound 206, 1-phenyl-4-[5-phenyl-2-(pyridin-2-yl)thieno[2,3-d]pyrimidin-4-yl]piperazine]	5.7
c1ccc(-c2csc3nc(-c4ccccn4)nc(N4CCN(c5ccccn5)CC4)c23)cc1 [Compound 207, 1-[5-phenyl-2-(pyridin-2-yl)thieno[2,3-d]pyrimidin-4-yl]-4-(pyridin-2-yl)piperazine]	6
